Experimental findings from US6887876B2, “Benzamidine derivatives” (Ortho-McNeil Pharmaceutical, Inc., priority 2000, dated 2005) are described below.

Where two headings read alike, the source gives them in different places. Where only a bound is given, the exact number is not on record here.

Test [1] has as its target μ-opioid receptor (Rattus norvegicus, UniProt P33535). As to the kind of experiment: Rat brain μ-opioid receptor binding assay ([3H]DAMGO).
Test [2] addresses δ-opioid receptor (Rattus norvegicus, UniProt P33533). As to the kind of experiment: Rat brain δ-opioid receptor binding assay ([3H]DPDPE).
For test [3], the target named is T1, δ-opioid receptor (Homo sapiens, UniProt P41143).
T1 construct: purchased Receptor Biology, Baltimore, Md; host or cells: CHO cells (membranes)
T1 sequence (P41143 whole entry): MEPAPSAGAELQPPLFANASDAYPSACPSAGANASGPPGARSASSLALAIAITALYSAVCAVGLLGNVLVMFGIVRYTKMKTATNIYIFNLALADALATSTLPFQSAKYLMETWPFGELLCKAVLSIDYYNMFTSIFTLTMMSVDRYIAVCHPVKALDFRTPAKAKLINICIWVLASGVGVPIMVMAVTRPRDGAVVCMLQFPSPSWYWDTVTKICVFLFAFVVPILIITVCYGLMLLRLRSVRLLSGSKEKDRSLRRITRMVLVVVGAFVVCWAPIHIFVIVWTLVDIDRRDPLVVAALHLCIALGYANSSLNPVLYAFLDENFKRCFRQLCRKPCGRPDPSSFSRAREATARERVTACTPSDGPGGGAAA
The test is described as follows: Scintillation screening assay for δ-opioid receptor binding ([3H]bremazocine). Conditions: cloned human receptor in CHO cell membranes, [3H]bremazocine 2.4 nM; for inhibition at 25 µM: read-out: δ-Opioid Receptor Binding (% Inhibition), % I @ 25 μM. The text has this:
Scintillation Screening Assay for δ-Opioid Receptor Binding
This is a receptor based screen to detect the competitive binding of test compounds at the δ-opioid receptor against the radioligand, [^3H]bremazocine (S.A.=25.5 Cl/mmol, Dupont/NEN, Cambridge, Mass.). Unknown compounds that bind to the same receptor as the radioligand will compete for the receptor and reduce the amount of radioligand which binds to the receptor. This is detected as a decreased scintillation signal from that particular incubation. The greater affinity an unknown has for the receptor, the larger the observed decrease in […] to the receptor; thus the assay is in the format of an inhibition study.
The receptor is a cloned human cDNA expressed in mammalian CHO cells. Membranes prepared from these cells are purchased from Receptor Biology, Baltimore, Md. The reaction buffer is composed as follows: HEPES (50 mM final), MgCl.6H2O (5 mM final), o-phenanthroline (20 mg/l), aprotinin (10 mg/l), Pefabloc SC (250 mg/l), leupeptin (0.5 mg/l), pepstatin A (0.7 mg/l), trypsin inhibitor (25 mg/l), chymostatin (10 mg/l), pH=7.2. Naloxone, 10 uM, is used to define non-specific binding. The assay employs filtration to capture receptor and bound ligand.
The receptor (membrane) preparation (28 ug protein) is allowed to incubate with the opioid receptor radioligand ([^3H]bremazocine, 2.4 nM) in 96-well plates until equilibrium is reached (>2 hr). Following incubation with the radioligand at 23° C., the well contents are filtered onto 96-well Whatman GF/C filter plates using a Packard cell harvester. Radioligand bound to the receptor also remains on the filter. The filters are rinsed three times with 0.5 mL of physiological saline (0.9% NaCl) to remove any unbound radioligand from the filter. Filters are dried and scintillation fluid is then added to the filters which emits light in proportion to the amount of radioactivity on the filter which is determined using an Packard Topcount scintillation counter. Data are reported as percent inhibition of control binding.

In test [4] the test system is acetylcholine bromide-induced abdominal constriction response. The test is described as follows: Mouse acetylcholine bromide-induced abdominal constriction assay (MAIT). The format is in vivo. The note with it: po, 0.5 h, 150 μmole/Kg p.o., acetylcholine bromide 5.5 mg/kg i.p. 30 min later. On the procedure: The mouse acetylcholine-induced abdominal constriction assay, as described by Collier et al. in […]., 32: 295-310, 1968 with minor modifications, was used to assess analgesic potency of the compounds of formula (I). The test drugs or appropriate vehicles were administered orally (p.o.) and 30 min later the animal received an intraperitoneal (i.p.) injection of 5.5 mg/kg acetylcholine bromide (Matheson, Coleman and Bell, East Rutherford, N.J.). The mice were then placed in groups of three into glass bell jars and observed for a ten min observation period for the occurrence of an abdominal constriction response (defined as a wave of constriction and elongation passing caudally along the abdominal wall, accompanied by a twisting of the trunk and followed by extension of the hind limbs). For compounds of the present invention, the percent inhibition of this response to a nociceptive stimulus (equated to % analgesia) was calculated as follows: [formula]

[5] abbreviates: rat forebrain preparation, [3H]DAMGO, 25° C., read-out: μ-Opioid Receptor Binding (Ki nM).
Setting [6] is: rat forebrain preparation, [3H]DPDPE, 25° C., read-out: δ-Opioid Receptor Binding (Ki nM).

μ-opioid receptor, sequence (P33535 whole entry): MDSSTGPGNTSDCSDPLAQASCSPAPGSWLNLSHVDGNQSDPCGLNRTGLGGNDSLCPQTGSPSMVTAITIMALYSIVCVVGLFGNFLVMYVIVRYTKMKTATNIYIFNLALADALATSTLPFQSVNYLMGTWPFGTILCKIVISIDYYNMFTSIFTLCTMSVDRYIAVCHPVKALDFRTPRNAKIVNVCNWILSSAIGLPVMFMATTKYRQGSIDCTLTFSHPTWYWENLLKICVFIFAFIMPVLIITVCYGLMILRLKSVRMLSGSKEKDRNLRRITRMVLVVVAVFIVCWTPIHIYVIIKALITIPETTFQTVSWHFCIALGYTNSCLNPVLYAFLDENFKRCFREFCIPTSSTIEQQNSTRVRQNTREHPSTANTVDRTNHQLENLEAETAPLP
δ-opioid receptor (Rattus norvegicus, UniProt P33533), sequence (P33533 whole entry): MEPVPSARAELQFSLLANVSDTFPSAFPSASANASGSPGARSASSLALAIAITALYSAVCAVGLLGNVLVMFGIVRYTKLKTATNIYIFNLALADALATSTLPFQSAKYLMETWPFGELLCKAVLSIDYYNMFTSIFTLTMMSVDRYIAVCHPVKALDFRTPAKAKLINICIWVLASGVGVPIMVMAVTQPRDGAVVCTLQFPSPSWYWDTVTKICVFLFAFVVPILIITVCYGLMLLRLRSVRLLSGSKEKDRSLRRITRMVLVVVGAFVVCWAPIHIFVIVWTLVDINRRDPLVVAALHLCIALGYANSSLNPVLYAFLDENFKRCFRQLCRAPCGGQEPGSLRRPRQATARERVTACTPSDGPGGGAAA

In the case of `CCN1CCN(C(=Nc2ccccc2Cl)c2ccc(C(=O)N(CC)CC)cc2)CC1` [Compound 6, 4-[[(2-chlorophenyl)imino](4-ethyl-1-piperazinyl)methyl]-N,N-diethyl-benzamide], the Ki is more than 10000 nM in test [1] and 91.1 nM in test [2]. Besides, in test [3], the inhibition at 25 µM amounted to 103%. For the same molecule, in test [4], the inhibition in vivo at 150 µmol/kg was found to be 20%.

As to `CCCN1CCN(C(=Nc2cccc(Cl)c2)c2ccc(C(=O)N(CC)CC)cc2)CC1` [Compound 14, 4-[[(3-chlorophenyl)imino](4-propyl-1-piperazinyl)methyl]-N,N-diethyl-benzamide], the Ki in test [1] amounted to 9530 nM; in test [2], 177 nM. For the same molecule, the inhibition at 25 µM in test [3] is 101%.

As to `CCCN(CCC)C(=O)c1ccc(C(=Nc2ccccc2Cl)N2CCN(CC)CC2)cc1` [Compound 7, 4-[[(2-chlorophenyl)imino](4-ethyl-1-piperazinyl)methyl]-N,N-dipropyl-benzamide], the inhibition constant Ki in test [1] (setting [5]) stood at 3930 nM; in test [2] (setting [6]) it was 292 nM. For the same molecule, in test [3], the inhibition at 25 µM was 97%.

As to `CCN1CCN(C(=Nc2ccccc2OC)c2ccc(C(=O)OC)cc2)CC1` [Compound 48, 4-[(4-ethyl-1-piperazinyl)[(2-methoxyphenyl)imino]methyl]-benzoic acid methyl ester], in test [3], the inhibition at 25 µM amounted to 60%.

Take `CCN1CCN(C(=Nc2cccc(OC)c2)c2ccc(C(=O)OC)cc2)CC1` [Compound 47, 4-[(4-ethyl-1-piperazinyl)[(3-methoxyphenyl)imino]methyl]-benzoic acid methyl ester]: the inhibition at 25 µM in test [3] worked out at 91%. In test [4], this molecule came in with an inhibition in vivo at 150 µmol/kg of 26.7%.

As to `CCN(CC)C(=O)c1ccc(C(=Nc2ccccc2Cl)N2CCN(CCc3cccs3)CC2)cc1` [Compound 21, 4-[[(2-chlorophenyl)imino][4-[2-(2-thienyl)ethyl]-1-piperazinyl]methyl]-N,N-diethyl-benzamide], the Ki in test [1] was more than 10000 nM; in test [2] it was 95.3 nM. Further, in test [4], the inhibition in vivo at 150 µmol/kg was 40%.

Take `CCCN(CCC)C(=O)c1ccc(C(=Nc2cccc(Br)c2)N2CCN(CC)CC2)cc1` [Compound 5, 4-[[(3-bromophenyl)imino](4-ethyl-1-piperazinyl)methyl]-N,N-dipropyl-benzamide]: the Ki turned out to be 5510 nM in test [1] and 39.2 nM in test [2]. Besides, the inhibition at 25 µM in test [3] was found to be 100%. This molecule also gave an inhibition in vivo at 150 µmol/kg in test [4] of 14.3%.

Consider “4-[[(2-chlorophenyl)imino](4-ethyl-1-piperazinyl)methyl]-benzoic acid methyl ester [Compound 31]”, for which the inhibitory constant (Ki) is more than 10000 nM in test [1] (setting [5]) and 222 nM in test [2] (setting [6]). The “δ-Opioid Receptor Binding (% Inhibition), % I @ 25 μM” value in test [3] amounted to 100%.

With `CCCN(CCC)C(=O)c1ccc(C(=Nc2ccccc2F)N2CCN(CC)CC2)cc1` [Compound 11, 4-[(4-ethyl-1-piperazinyl)[(2-fluorophenyl)imino]methyl]-N,N-dipropyl-benzamide], the inhibition constant (Ki) in test [1] (setting [5]) is more than 10000 nM; in test [2] (setting [6]), 256 nM. For the same molecule, the inhibition at 25 µM in test [3] turned out to be 98%.

With `CCN1CCN(C(=Nc2cc(Cl)cc(Cl)c2)c2ccc(C(=O)N(CC)CC)cc2)CC1` [Compound 13, 4-[[(3,5-dichlorophenyl)imino](4-ethyl-1-piperazinyl)methyl]-N,N-diethyl-benzamide], the Ki in test [1] (setting [5]) is more than 10000 nM; in test [2] (setting [6]) it was 277 nM. Also, in test [3], the inhibition at 25 µM worked out at 100%.

As for `CCN1CCN(C(=Nc2cccc(Cl)c2)c2ccc(C(=O)OC)cc2)CC1` [Compound 29, 4-[[(3-chlorophenyl)imino](4-ethyl-1-piperazinyl)methyl]-benzoic acid methyl ester], the inhibition constant Ki is more than 10000 nM in test [1] (setting [5]) and 283 nM in test [2] (setting [6]). Besides, in test [3], the inhibition at 25 µM was 97%.

In the case of `CCN1CCN(C(=Nc2cccc(F)c2)c2ccc(C(=O)OC)cc2)CC1` [Compound 33, 4-[(4-ethyl-1-piperazinyl)[(3-fluorophenyl)imino]methyl]-benzoic acid methyl ester], in test [3], the “δ-Opioid Receptor Binding (% Inhibition), % I @ 25 μM” value was determined as 100%.

With `CCCN1CCN(C(=Nc2ccccc2Cl)c2ccc(C(=O)OC)cc2)CC1` [Compound 34, 4-[[(2-chlorophenyl)imino](4-propyl-1-piperazinyl)methyl]-benzoic acid methyl ester], the results for the inhibitory constant (Ki) in test [1] and in test [2] were 2070 nM and 87.3 nM, respectively. Moreover, the inhibition at 25 µM in test [3] came out at 90%.

In the case of `CCN1CCN(C(=Nc2cccc(F)c2)c2ccc(C(=O)OC)cc2)CC1` [Compound 32, 4-[(4-ethyl-1-piperazinyl)[(3-fluorophenyl)imino]methyl]-benzoic acid methyl ester], the inhibition constant Ki in test [1] was more than 10000 nM; in test [2] it was 259 nM. Moreover, in test [3], the inhibition at 25 µM amounted to 97%.

Consider `CCN(CC)C(=O)c1ccc(C(=Nc2ccccc2Cl)N2CCN(Cc3ccccc3)CC2)cc1` [Compound 20, 4-[[(2-chlorophenyl)imino][4-(phenylmethyl)-1-piperazinyl]methyl]-N,N-diethyl-benzamide], for which the values for the inhibitory constant (Ki) in test [1] and in test [2] were more than 10000 nM and 11.8 nM, respectively. The inhibition in vivo at 150 µmol/kg in test [4] was 23.1%.

Take `C=CCN1C[C@H](C)N(/C(=N/c2ccccc2)c2ccc(C(=O)N(CC)CC)cc2)C[C@H]1C` [Compound 16, 4-[(E)-[(2S,5R)-2,5-dimethyl-4-(2-propenyl)piperazinyl](phenylimino)methyl]-N,N-diethyl-benzamide]: the results for the inhibition constant Ki in test [1] (setting [5]) and in test [2] (setting [6]) were 4330 nM and 170 nM, respectively. In test [4], this molecule displayed an inhibition in vivo at 150 µmol/kg of 50%.

With `CCN1CCN(C(=Nc2ccccc2)c2ccc(C(=O)OC)cc2)CC1` [Compound 46, 4-[(4-ethyl-1-piperazinyl)(phenylimino)methyl]-benzoic acid methyl ester], the inhibition at 25 µM in test [3] is 94%. Besides, the inhibition in vivo at 150 µmol/kg in test [4] was determined as 26.7%.

For `CCCN(CCC)C(=O)c1ccc(C(=Nc2cc(Cl)cc(Cl)c2)N2CCN(CC)CC2)cc1` [Compound 12, 4-[[(3,5-dichlorophenyl)imino](4-ethyl-1-piperazinyl)methyl]-N,N-dipropyl-benzamide], the values for the Ki in test [1] (setting [5]) and in test [2] (setting [6]) were more than 10000 nM and 674 nM, respectively. In addition, in test [3], the inhibition at 25 µM was 98%.

In the case of `CCN1CCN(C(=Nc2cccc(Br)c2)c2ccc(C(=O)OC)cc2)CC1` [Compound 30, 4-[[(3-bromophenyl)imino](4-ethyl-1-piperazinyl)methyl]-benzoic acid methyl ester], the Ki was more than 10000 nM in test [1] (setting [5]) and 638 nM in test [2] (setting [6]). Moreover, the inhibition at 25 µM in test [3] came out at 99%.

As to `CCN1CCN(C(=Nc2ccccc2F)c2ccc(C(=O)N(CC)CC)cc2)CC1` [Compound 10, N,N-diethyl-4-[(4-ethyl-1-piperazinyl)[(2-fluorophenyl)imino]methyl]-benzamide], the Ki is more than 10000 nM in test [1] and 118 nM in test [2]. For the same molecule, the inhibition at 25 µM in test [3] amounted to 102%. In addition, the inhibition in vivo at 150 µmol/kg in test [4] came to 26.7%.

With `C=CCN1CCN(C(=Nc2ccccc2Cl)c2ccc(C(=O)N(CC)CC)cc2)CC1` [Compound 19, 4-[[(2-chlorophenyl)imino][4-(2-propenyl)-1-piperazinyl]methyl]-N,N-diethyl-benzamide], the inhibitory constant (Ki) is 7600 nM in test [1] and 20.5 nM in test [2]. In addition, the inhibition in vivo at 150 µmol/kg in test [4] was 40%.

Take `CCN1CCN(C(=Nc2cccc(F)c2)c2ccc(C(=O)N(CC)CC)cc2)CC1` [Compound 9, N,N-diethyl-4-[(4-ethyl-1-piperazinyl)[(3-fluorophenyl)imino]methyl]-benzamide]: the Ki is more than 10000 nM in test [1] and 58.5 nM in test [2]. In addition, the inhibition at 25 µM in test [3] worked out at 97%.
